Assay results from patent US20230042936A1, “PYRIDO[2,3-d]PYRIMIDIN-7(8H)-ONES AS CDK INHIBITORS” (PROSENESTAR LLC, priority 2020, published 2023).

Key:
Format in all cases: biochemical
CDC7/DBF4 = CDC7/DBF4 (Homo sapiens, UniProt O00311); assay: Kinase profiling; details: 10 semi-logarithmic dilutions from 50 μM, singlicate; read-out: IC50 CDC7/DBF4
PCTAIRE1/CycY = PCTAIRE1/CycY (Homo sapiens, UniProt Q00536); assay: Kinase profiling; details: 10 semi-logarithmic dilutions from 50 μM, singlicate
CDK1/CycE1 = CDK1/CycE1 (Homo sapiens, UniProt P06493); assay: Kinase profiling; details: 10 semi-logarithmic dilutions from 50 μM, singlicate
CDK3/CycC = CDK3/CycC (Homo sapiens, UniProt Q00526); assay: Kinase profiling; details: 10 semi-logarithmic dilutions from 50 μM, singlicate
Chain of CDK3/CycC (Q00526 whole entry): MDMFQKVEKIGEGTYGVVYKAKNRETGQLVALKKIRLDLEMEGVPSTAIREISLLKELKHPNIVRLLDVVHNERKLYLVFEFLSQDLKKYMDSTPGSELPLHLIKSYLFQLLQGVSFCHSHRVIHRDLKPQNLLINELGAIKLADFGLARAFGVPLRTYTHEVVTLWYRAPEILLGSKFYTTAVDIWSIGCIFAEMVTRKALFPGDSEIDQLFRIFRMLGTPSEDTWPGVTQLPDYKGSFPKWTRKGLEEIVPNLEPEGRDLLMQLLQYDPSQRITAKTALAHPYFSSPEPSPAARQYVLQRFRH
Chain of CDK3/CycC (P24863 whole entry partner): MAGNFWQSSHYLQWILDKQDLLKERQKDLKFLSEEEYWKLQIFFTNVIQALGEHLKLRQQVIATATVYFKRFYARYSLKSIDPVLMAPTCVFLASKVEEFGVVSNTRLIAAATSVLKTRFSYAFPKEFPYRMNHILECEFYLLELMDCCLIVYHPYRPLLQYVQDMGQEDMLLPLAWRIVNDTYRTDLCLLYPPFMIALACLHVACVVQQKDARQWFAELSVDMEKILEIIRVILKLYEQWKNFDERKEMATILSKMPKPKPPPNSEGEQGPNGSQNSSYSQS

CDK6/CycD3 = CDK6/CycD3 (Homo sapiens, UniProt Q00534); assay: Kinase profiling; details: 10 semi-logarithmic dilutions from 50 μM, singlicate
Chain of CDK6/CycD3 (Q00534 whole entry): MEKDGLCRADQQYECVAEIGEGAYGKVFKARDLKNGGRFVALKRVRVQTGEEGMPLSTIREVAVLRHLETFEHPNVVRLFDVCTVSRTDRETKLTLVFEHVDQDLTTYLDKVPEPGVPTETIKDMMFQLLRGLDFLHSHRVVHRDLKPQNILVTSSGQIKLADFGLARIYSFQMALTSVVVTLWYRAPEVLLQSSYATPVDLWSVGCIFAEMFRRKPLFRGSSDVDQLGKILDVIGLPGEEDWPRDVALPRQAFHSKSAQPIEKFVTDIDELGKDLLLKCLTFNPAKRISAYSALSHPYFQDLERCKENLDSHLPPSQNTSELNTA
Chain of CDK6/CycD3 (P30281 whole entry partner): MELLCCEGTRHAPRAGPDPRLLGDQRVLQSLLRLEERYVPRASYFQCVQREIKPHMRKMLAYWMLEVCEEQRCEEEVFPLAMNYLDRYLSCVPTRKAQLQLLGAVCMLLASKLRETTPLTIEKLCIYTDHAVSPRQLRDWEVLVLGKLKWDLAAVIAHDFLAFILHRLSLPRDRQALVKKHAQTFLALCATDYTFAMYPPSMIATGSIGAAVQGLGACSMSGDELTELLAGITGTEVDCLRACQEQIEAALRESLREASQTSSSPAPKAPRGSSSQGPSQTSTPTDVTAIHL

CDK9/CycT1 = CDK9/CycT1 (Homo sapiens, UniProt P50750); assay: Kinase profiling; details: 10 semi-logarithmic dilutions from 50 μM, singlicate
CDK5/p25NCK = CDK5/p25NCK (Homo sapiens, UniProt Q00535); assay: Kinase profiling; details: 10 semi-logarithmic dilutions from 50 μM, singlicate
DYRK1A = DYRK1A (Homo sapiens, UniProt Q13627); assay: Kinase profiling; details: 10 semi-logarithmic dilutions from 50 μM, singlicate
CDK9/CycK = CDK9/CycK (Homo sapiens, UniProt P50750); assay: Kinase profiling; details: 10 semi-logarithmic dilutions from 50 μM, singlicate
CDK2/CycE1 = CDK2/CycE1 (Homo sapiens, UniProt P24941); assay: Kinase profiling; details: 10 semi-logarithmic dilutions from 50 μM, singlicate
HIPK2 = HIPK2 (Homo sapiens, UniProt Q9H2X6); assay: Kinase profiling; details: 10 semi-logarithmic dilutions from 50 μM, singlicate; read-out: IC50 HIPK2
Chain of HIPK2 (Q9H2X6 whole entry): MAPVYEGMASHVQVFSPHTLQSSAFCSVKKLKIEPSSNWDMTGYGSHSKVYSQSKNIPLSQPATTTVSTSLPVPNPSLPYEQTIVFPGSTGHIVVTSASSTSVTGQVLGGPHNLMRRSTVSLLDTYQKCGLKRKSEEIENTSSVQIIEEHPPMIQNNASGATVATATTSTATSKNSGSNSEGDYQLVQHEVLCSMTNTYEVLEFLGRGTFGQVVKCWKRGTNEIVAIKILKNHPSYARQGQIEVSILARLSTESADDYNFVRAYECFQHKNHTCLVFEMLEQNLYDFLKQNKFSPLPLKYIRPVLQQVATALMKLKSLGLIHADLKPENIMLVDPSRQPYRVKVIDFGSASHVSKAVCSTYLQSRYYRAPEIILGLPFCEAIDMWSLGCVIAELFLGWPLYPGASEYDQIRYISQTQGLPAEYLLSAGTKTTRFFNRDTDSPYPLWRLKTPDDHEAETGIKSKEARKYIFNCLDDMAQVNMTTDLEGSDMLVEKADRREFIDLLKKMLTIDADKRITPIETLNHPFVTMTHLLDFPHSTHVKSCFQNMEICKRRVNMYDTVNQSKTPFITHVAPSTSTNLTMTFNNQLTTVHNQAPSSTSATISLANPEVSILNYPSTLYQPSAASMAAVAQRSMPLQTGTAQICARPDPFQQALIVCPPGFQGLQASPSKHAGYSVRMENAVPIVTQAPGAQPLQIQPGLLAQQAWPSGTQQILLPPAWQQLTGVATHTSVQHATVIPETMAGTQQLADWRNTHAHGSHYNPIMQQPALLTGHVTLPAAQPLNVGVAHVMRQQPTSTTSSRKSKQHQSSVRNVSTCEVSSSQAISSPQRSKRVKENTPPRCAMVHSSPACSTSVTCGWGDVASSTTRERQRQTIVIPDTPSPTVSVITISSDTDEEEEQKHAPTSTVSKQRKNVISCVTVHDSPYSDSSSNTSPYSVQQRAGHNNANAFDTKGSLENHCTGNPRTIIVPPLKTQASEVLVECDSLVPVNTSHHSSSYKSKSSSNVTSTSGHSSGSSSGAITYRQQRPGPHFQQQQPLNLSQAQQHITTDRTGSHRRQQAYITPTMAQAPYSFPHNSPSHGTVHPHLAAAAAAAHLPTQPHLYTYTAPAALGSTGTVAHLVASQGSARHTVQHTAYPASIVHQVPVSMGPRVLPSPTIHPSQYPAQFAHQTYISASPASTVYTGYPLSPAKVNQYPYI

CDK7/CycH/MAT1 = CDK7/CycH/MAT1 (Homo sapiens, UniProt P50613); assay: Kinase profiling; details: 10 semi-logarithmic dilutions from 50 μM, singlicate
CDK6/CycD1 = CDK6/CycD1 (Homo sapiens, UniProt Q00534); assay: Kinase profiling; details: 10 semi-logarithmic dilutions from 50 μM, singlicate
Chain of CDK6/CycD1 (Q00534 whole entry): as the sequence (Q00534 whole entry) above
Chain of CDK6/CycD1 (P24385 whole entry partner): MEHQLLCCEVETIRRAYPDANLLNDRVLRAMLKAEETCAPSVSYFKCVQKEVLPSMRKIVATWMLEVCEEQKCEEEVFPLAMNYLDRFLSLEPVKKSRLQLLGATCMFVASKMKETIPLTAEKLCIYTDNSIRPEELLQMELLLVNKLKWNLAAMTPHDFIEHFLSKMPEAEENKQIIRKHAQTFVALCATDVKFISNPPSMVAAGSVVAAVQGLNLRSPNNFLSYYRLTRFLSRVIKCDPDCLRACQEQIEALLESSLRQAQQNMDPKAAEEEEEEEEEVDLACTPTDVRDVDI

[1] = system: panel of 27 kinases (CDK family members); assay: Kinase profiling, results in words; details: from Table 1
CDK5/p35NCK = CDK5/p35NCK (Homo sapiens, UniProt Q00535); assay: Kinase profiling; details: 10 semi-logarithmic dilutions from 50 μM, singlicate
CDK3/CycE1 = CDK3/CycE1 (Homo sapiens, UniProt Q00526); assay: Kinase profiling; details: 10 semi-logarithmic dilutions from 50 μM, singlicate
CDK2/CycA2 = CDK2/CycA2 (Homo sapiens, UniProt P24941); assay: Kinase profiling; details: 10 semi-logarithmic dilutions from 50 μM, singlicate
DYRK2 = biological target: T1, DYRK2 (Homo sapiens, UniProt Q92630); assay: Kinase profiling; details: 10 semi-logarithmic dilutions from 50 μM, singlicate; read-out: IC50 DYRK2
T1 sequence (Q92630 1-601): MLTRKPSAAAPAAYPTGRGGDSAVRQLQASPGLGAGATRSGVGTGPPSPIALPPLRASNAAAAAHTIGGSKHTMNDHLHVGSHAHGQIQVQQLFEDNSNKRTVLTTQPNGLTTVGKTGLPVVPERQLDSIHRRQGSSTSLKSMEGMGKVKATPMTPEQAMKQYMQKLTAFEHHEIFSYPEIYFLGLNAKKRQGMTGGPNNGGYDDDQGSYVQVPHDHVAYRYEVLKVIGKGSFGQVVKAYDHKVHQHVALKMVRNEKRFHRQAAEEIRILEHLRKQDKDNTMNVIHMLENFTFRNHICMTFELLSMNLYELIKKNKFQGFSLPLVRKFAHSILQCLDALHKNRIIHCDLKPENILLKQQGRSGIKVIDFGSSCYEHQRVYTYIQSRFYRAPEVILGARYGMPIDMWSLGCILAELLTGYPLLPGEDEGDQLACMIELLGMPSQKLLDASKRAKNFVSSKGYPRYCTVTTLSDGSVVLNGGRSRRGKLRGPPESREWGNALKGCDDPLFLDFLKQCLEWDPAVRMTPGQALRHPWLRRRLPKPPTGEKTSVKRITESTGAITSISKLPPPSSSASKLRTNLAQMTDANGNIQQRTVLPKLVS

CDK4/CycD1 = CDK4/CycD1 (Homo sapiens, UniProt P11802); assay: Kinase profiling; details: 10 semi-logarithmic dilutions from 50 μM, singlicate
CDK12wt/CycK = CDK12wt/CycK (Homo sapiens, UniProt Q9NYV4); assay: Kinase profiling; details: 10 semi-logarithmic dilutions from 50 μM, singlicate
CDK4/CycD3 = CDK4/CycD3 (Homo sapiens, UniProt P11802); assay: Kinase profiling; details: 10 semi-logarithmic dilutions from 50 μM, singlicate
CDK8/CycC = CDK8/CycC (Homo sapiens, UniProt P49336); assay: Kinase profiling; details: 10 semi-logarithmic dilutions from 50 μM, singlicate
Chain of CDK8/CycC (P49336 whole entry): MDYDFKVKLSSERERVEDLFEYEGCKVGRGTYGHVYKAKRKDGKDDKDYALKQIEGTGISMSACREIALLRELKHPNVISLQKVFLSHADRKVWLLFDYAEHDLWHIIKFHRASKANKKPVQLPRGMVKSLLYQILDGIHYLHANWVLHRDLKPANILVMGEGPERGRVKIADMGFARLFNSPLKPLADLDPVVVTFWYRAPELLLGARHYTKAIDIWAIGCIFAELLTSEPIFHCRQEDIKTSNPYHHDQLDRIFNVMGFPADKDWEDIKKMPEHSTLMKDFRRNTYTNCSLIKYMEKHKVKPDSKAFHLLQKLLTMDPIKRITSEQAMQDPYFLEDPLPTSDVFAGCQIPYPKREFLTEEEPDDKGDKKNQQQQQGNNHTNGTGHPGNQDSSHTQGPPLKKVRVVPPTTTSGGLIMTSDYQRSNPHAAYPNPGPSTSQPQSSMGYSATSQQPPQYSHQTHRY
Chain of CDK8/CycC (P24863 whole entry partner): as the sequence (P24863 whole entry partner) above

PIM1 = PIM1 (Homo sapiens, UniProt P11309); assay: Kinase profiling; details: 10 semi-logarithmic dilutions from 50 μM, singlicate
CDK19/CycC = CDK19/CycC (Homo sapiens, UniProt Q9BWU1); assay: Kinase profiling; details: 10 semi-logarithmic dilutions from 50 μM, singlicate
Chain of CDK19/CycC (Q9BWU1 whole entry): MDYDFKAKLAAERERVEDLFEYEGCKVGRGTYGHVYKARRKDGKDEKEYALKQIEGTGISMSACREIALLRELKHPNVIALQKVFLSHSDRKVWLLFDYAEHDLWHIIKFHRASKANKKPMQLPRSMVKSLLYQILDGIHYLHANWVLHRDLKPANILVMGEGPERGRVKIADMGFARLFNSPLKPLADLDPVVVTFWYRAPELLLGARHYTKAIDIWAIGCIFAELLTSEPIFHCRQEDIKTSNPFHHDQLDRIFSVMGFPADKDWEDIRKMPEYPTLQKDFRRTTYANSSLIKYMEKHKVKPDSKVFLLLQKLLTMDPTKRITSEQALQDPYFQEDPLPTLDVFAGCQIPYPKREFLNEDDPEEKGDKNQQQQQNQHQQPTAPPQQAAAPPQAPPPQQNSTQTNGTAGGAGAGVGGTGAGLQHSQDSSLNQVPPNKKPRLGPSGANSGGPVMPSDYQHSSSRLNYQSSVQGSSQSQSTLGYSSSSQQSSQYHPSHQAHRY
Chain of CDK19/CycC (P24863 whole entry partner): as the sequence (P24863 whole entry partner) above

CDK1/CycB1 = CDK1/CycB1 (Homo sapiens, UniProt P06493); assay: Kinase profiling; details: 10 semi-logarithmic dilutions from 50 μM, singlicate
ERK1 = ERK1 (Homo sapiens, UniProt P27361); assay: Kinase profiling; details: 10 semi-logarithmic dilutions from 50 μM, singlicate
Chain of ERK1 (P27361 whole entry, the tested form may be a part): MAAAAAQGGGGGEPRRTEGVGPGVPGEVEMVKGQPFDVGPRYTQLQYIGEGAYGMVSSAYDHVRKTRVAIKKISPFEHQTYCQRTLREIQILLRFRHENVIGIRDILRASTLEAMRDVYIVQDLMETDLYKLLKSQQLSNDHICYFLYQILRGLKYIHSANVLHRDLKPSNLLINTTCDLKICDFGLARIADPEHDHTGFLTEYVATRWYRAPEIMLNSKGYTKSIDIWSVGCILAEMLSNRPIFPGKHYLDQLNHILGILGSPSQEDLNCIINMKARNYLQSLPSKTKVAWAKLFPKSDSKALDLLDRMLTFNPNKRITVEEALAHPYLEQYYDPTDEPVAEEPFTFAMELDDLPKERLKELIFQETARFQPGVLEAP

AKT1 aa1-480 = biological target: T2, AKT1 aa1-480 (Homo sapiens, UniProt P31749); assay: Kinase profiling; details: 10 semi-logarithmic dilutions from 50 μM, singlicate
T2 construct: AKT1 aa1-480
T2 sequence (P31749 whole entry, the tested form may be a part): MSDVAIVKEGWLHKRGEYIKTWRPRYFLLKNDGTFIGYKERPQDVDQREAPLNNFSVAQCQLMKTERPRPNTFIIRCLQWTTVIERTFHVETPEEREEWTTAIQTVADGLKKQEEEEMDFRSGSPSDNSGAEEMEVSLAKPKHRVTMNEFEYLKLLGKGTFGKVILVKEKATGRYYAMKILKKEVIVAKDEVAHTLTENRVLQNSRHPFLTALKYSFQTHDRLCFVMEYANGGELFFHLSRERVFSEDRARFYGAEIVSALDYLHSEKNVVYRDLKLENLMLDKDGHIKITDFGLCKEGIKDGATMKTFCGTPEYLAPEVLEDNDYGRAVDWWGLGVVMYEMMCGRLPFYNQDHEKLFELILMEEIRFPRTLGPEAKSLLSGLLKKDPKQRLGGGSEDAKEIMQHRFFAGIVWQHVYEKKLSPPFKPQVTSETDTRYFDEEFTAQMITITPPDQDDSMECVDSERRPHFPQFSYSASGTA

CC(=O)c1c(C)c2cnc(Nc3ccc(N4CCC(CCCO)CC4)cc3)nc2n([C@@H]2CC3CCC2C3)c1=O (stereo partly drawn) [PS008, 6-acetyl-8-((2R)-bicyclo[2.2.1]heptan-2-yl)-2-((4-(4-(3-hydroxypropyl)piperidin-1-yl)phenyl)amino)-5-methylpyrido[2,3-d]pyrimidin-7(8H)-one]
IC50 (CDC7/DBF4): > 50 µM
IC50 (PCTAIRE1/CycY): 35.9 µM
IC50 (CDK1/CycE1): 3.04 µM
IC50 (CDK3/CycC): 1.86 µM
IC50 (CDK6/CycD3): 0.672 µM
IC50 (CDK9/CycT1): 0.175 µM
IC50 (CDK5/p25NCK): 9.43 µM
IC50 (DYRK1A): 11.8 µM
IC50 (CDK9/CycK): 0.0675 µM
IC50 (CDK2/CycE1): 3.64 µM
IC50 (HIPK2): 5.58 µM
IC50 (CDK7/CycH/MAT1): 11.8 µM
IC50 (CDK6/CycD1): 0.0195 µM
additional affinity for CDK1/2 [1]: additional affinity
IC50 (CDK5/p35NCK): 3.68 µM
IC50 (CDK3/CycE1): 25.9 µM
IC50 (CDK2/CycA2): 3.52 µM
IC50 (DYRK2): 9.24 µM
IC50 (CDK4/CycD1): 0.0989 µM
IC50 (CDK12wt/CycK): 28.1 µM
IC50 (CDK4/CycD3): 0.261 µM
IC50 (CDK8/CycC): 27.3 µM
IC50 (PIM1): > 50 µM
IC50 (CDK19/CycC): 25.7 µM
IC50 (CDK1/CycB1): 0.721 µM
IC50 (ERK1): 0.949 µM
IC50 (AKT1 aa1-480): > 50 µM

CC(O)COC1CCN(c2ccc(Nc3ncc4ccc(=O)n([C@@H]5CC6CCC5C6)c4n3)cc2)CC1 (stereo partly drawn) [PS006, 8-((2R)-bicyclo[2.2.1]heptan-2-yl)-2-((4-(4-(2-hydroxypropoxy)piperidin-1-yl)phenyl)amino)pyrido[2,3-d]pyrimidin-7(8H)-one]
IC50 (CDC7/DBF4): 5.57 µM
IC50 (PCTAIRE1/CycY): 3.84 µM
IC50 (CDK1/CycE1): 1.21 µM
IC50 (CDK3/CycC): 0.885 µM
IC50 (CDK6/CycD3): 0.108 µM
IC50 (CDK9/CycT1): 0.264 µM
IC50 (CDK5/p25NCK): 1.46 µM
IC50 (DYRK1A): 46.8 µM
IC50 (CDK9/CycK): 0.148 µM
IC50 (CDK2/CycE1): 0.108 µM
IC50 (HIPK2): 14.7 µM
IC50 (CDK7/CycH/MAT1): 8 µM
IC50 (CDK6/CycD1): 0.0125 µM
affinity for CDK5 [1]: presented affinity
kinase affinity profile [1]: high affinity for CDK6/2/5/9
IC50 (CDK5/p35NCK): 0.771 µM
IC50 (CDK3/CycE1): 0.306 µM
IC50 (CDK2/CycA2): 0.203 µM
IC50 (DYRK2): > 50 µM
IC50 (CDK4/CycD1): 0.0189 µM
IC50 (CDK12wt/CycK): 1.01 µM
IC50 (CDK4/CycD3): 0.0466 µM
IC50 (CDK8/CycC): 0.103 µM
IC50 (PIM1): > 50 µM
IC50 (CDK19/CycC): 4.13 µM
IC50 (CDK1/CycB1): 1.96 µM
IC50 (ERK1): 8.32 µM
IC50 (AKT1 aa1-480): > 50 µM

CC(=O)c1c(C)c2cnc(Nc3ccc(N4CCC(CCCO)CC4)cc3)nc2n(C2CCCC2)c1=O [PS009, 6-acetyl-8-cyclopentyl-2-((4-(4-(3-hydroxypropyl)piperidin-1-yl)phenyl)amino)-5-methylpyrido[2,3-d]pyrimidin-7(8H)-one]
IC50 (CDC7/DBF4): > 50 µM
IC50 (PCTAIRE1/CycY): > 50 µM
IC50 (CDK1/CycE1): 19.7 µM
IC50 (CDK3/CycC): 7.66 µM
IC50 (CDK6/CycD3): 0.125 µM
IC50 (CDK9/CycT1): 0.193 µM
IC50 (CDK5/p25NCK): 4.85 µM
IC50 (DYRK1A): > 50 µM
IC50 (CDK9/CycK): 0.056 µM
IC50 (CDK2/CycE1): 2.94 µM
IC50 (HIPK2): > 50 µM
IC50 (CDK7/CycH/MAT1): 30.8 µM
IC50 (CDK6/CycD1): 0.013 µM
additional affinity for CDK1/2 [1]: additional affinity
kinase affinity profile [1]: mainly bound to CDK4/6/ with also an interesting preference for CDK2 and CDK9
IC50 (CDK5/p35NCK): 1.86 µM
IC50 (CDK3/CycE1): 17.1 µM
IC50 (CDK2/CycA2): 0.768 µM
IC50 (DYRK2): > 50 µM
IC50 (CDK4/CycD1): 0.026 µM
IC50 (CDK12wt/CycK): 17.4 µM
IC50 (CDK4/CycD3): 0.0554 µM
IC50 (CDK8/CycC): > 50 µM
IC50 (PIM1): > 50 µM
IC50 (CDK19/CycC): 36.4 µM
IC50 (CDK1/CycB1): 32.5 µM
IC50 (ERK1): 48.9 µM
IC50 (AKT1 aa1-480): > 50 µM
